Test results: ChEMBL document CHEMBL1143116, “Synthesis and biological evaluation of 5-(pyridin-2-yl)thiazoles as transforming growth factor-beta type1 receptor kinase inhibitors” (Bioorg Med Chem Lett, 2008)

Molecular target: T1, TGF-beta receptor type-1 (Homo sapiens) (UniProt P36897)
T1 sequence (whole entry): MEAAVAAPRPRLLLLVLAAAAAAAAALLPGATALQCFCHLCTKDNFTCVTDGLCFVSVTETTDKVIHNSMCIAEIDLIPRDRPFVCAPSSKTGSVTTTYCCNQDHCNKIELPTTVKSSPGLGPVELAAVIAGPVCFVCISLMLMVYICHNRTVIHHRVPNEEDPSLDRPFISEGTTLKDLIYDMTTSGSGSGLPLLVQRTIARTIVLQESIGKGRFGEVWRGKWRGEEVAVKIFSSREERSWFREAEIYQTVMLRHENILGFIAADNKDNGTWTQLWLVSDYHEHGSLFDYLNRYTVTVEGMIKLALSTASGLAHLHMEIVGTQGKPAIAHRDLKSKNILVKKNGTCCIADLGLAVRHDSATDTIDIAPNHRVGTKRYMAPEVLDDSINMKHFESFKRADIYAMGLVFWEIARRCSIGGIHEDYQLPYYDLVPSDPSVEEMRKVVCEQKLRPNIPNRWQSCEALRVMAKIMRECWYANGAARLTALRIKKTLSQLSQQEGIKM
Test: Inhibition of TGF-beta-induced ALK5 in human HaCaT cells assessed as p3TP-luciferase activity
Type: cell-based

Activity: Dose-dependent effect
SMILES: Cc1cccc(-c2sc(NCc3cccc(C(N)=O)c3)nc2-c2ccc3nccnc3c2)n1
